Literature values as cited in patent EP2939710B1, “Active Mixtures” (Symrise AG, priority 2014, dated 2015).

Details: water (20° dH) at 20 °C, solid active agent

solubility in water: less than 5 g/L
Compound: Nc1nc2c(ncn2COCCO)c(=O)[nH]1 [Acyclovir, 2-Amino-1,9-dihydro-9-((2-hydroxyethoxy)methyl)-6H-Purin-6-one]
